From the NIST ThermoML archive (doi:10.1016/j.jct.2007.04.005)
Numbers after ± are expanded uncertainties.

Assay: xn = mol fraction of the nth substance listed
Conditions: 308.15 K, Liquid

CCCCCCCCC [nonane] + C1CCCCC1
Conditions | mass density [kg/m3]
100 kPa, x2 = 0 | 705.8 ± 0.7
100 kPa, x2 = 0.09303 | 708.8 ± 0.7
100 kPa, x2 = 0.2009 | 712.6 ± 0.7
100 kPa, x2 = 0.3051 | 716.8 ± 0.7
100 kPa, x2 = 0.417 | 721.7 ± 0.6
100 kPa, x2 = 0.512 | 726.3 ± 0.6
100 kPa, x2 = 0.5996 | 731.2 ± 0.6
100 kPa, x2 = 0.7052 | 737.9 ± 0.6
100 kPa, x2 = 0.7993 | 745 ± 0.6
100 kPa, x2 = 0.9039 | 754 ± 0.5
101 kPa, x2 = 0 | 706.11 ± 0.68
101 kPa, x2 = 0.1022 | 709.37 ± 0.66
101 kPa, x2 = 0.1548 | 711.18 ± 0.66
101 kPa, x2 = 0.2009 | 712.84 ± 0.65
101 kPa, x2 = 0.2591 | 715.05 ± 0.64
101 kPa, x2 = 0.3306 | 717.98 ± 0.63
101 kPa, x2 = 0.4003 | 721.05 ± 0.61
101 kPa, x2 = 0.4596 | 723.89 ± 0.6
101 kPa, x2 = 0.5321 | 727.62 ± 0.59
101 kPa, x2 = 0.612 | 732.19 ± 0.58
101 kPa, x2 = 0.6649 | 735.49 ± 0.57
101 kPa, x2 = 0.7224 | 739.39 ± 0.56
101 kPa, x2 = 0.8047 | 745.58 ± 0.54
101 kPa, x2 = 0.8686 | 751 ± 0.53
101 kPa, x2 = 0.9405 | 757.89 ± 0.52
2130 kPa, x2 = 0 | 707.5 ± 0.8
2130 kPa, x2 = 0.09303 | 710.5 ± 0.8
2130 kPa, x2 = 0.2009 | 714.3 ± 0.8
2130 kPa, x2 = 0.3051 | 718.5 ± 0.7
2130 kPa, x2 = 0.417 | 723.4 ± 0.7
2130 kPa, x2 = 0.512 | 728 ± 0.7
2130 kPa, x2 = 0.5996 | 733 ± 0.7
2130 kPa, x2 = 0.7052 | 739.7 ± 0.7
2130 kPa, x2 = 0.7993 | 746.8 ± 0.6
2130 kPa, x2 = 0.9039 | 755.7 ± 0.6
4150 kPa, x2 = 0 | 709.2 ± 0.9
4150 kPa, x2 = 0.09303 | 712.2 ± 0.9
4150 kPa, x2 = 0.2009 | 716 ± 0.8
4150 kPa, x2 = 0.3051 | 720.2 ± 0.8
4150 kPa, x2 = 0.417 | 725.1 ± 0.8
4150 kPa, x2 = 0.512 | 729.7 ± 0.8
4150 kPa, x2 = 0.5996 | 734.7 ± 0.8
4150 kPa, x2 = 0.7052 | 741.5 ± 0.7
4150 kPa, x2 = 0.7993 | 748.5 ± 0.7
4150 kPa, x2 = 0.9039 | 757.5 ± 0.7
6180 kPa, x2 = 0 | 710.9 ± 1
6180 kPa, x2 = 0.09303 | 713.9 ± 0.9
6180 kPa, x2 = 0.2009 | 717.7 ± 0.9
6180 kPa, x2 = 0.3051 | 721.9 ± 0.9
6180 kPa, x2 = 0.417 | 726.8 ± 0.9
6180 kPa, x2 = 0.512 | 731.4 ± 0.9
6180 kPa, x2 = 0.5996 | 736.4 ± 0.8
6180 kPa, x2 = 0.7052 | 743.2 ± 0.8
6180 kPa, x2 = 0.7993 | 750.3 ± 0.8
6180 kPa, x2 = 0.9039 | 759.3 ± 0.8
8210 kPa, x2 = 0 | 712.5 ± 1
8210 kPa, x2 = 0.09303 | 715.5 ± 1
8210 kPa, x2 = 0.2009 | 719.4 ± 1
8210 kPa, x2 = 0.3051 | 723.6 ± 1
8210 kPa, x2 = 0.417 | 728.5 ± 1
8210 kPa, x2 = 0.512 | 733.1 ± 0.9
8210 kPa, x2 = 0.5996 | 738.1 ± 0.9
8210 kPa, x2 = 0.7052 | 744.9 ± 0.9
8210 kPa, x2 = 0.7993 | 752 ± 0.9
8210 kPa, x2 = 0.9039 | 761 ± 0.8
10230 kPa, x2 = 0 | 714.1 ± 1.1
10230 kPa, x2 = 0.09303 | 717.1 ± 1.1
10230 kPa, x2 = 0.2009 | 721 ± 1.1
10230 kPa, x2 = 0.3051 | 725.2 ± 1.1
10230 kPa, x2 = 0.417 | 730.1 ± 1
10230 kPa, x2 = 0.512 | 734.7 ± 1
10230 kPa, x2 = 0.5996 | 739.8 ± 1
10230 kPa, x2 = 0.7052 | 746.6 ± 1
10230 kPa, x2 = 0.7993 | 753.6 ± 0.9
10230 kPa, x2 = 0.9039 | 762.7 ± 0.9
11250 kPa, x2 = 0 | 714.9 ± 1.2
11250 kPa, x2 = 0.09303 | 717.9 ± 1.2
11250 kPa, x2 = 0.2009 | 721.8 ± 1.1
11250 kPa, x2 = 0.3051 | 726 ± 1.1
11250 kPa, x2 = 0.417 | 730.9 ± 1.1
11250 kPa, x2 = 0.512 | 735.5 ± 1.1
11250 kPa, x2 = 0.5996 | 740.6 ± 1
11250 kPa, x2 = 0.7052 | 747.4 ± 1
11250 kPa, x2 = 0.7993 | 754.4 ± 1
11250 kPa, x2 = 0.9039 | 763.5 ± 0.9
12260 kPa, x2 = 0 | 715.7 ± 1.2
12260 kPa, x2 = 0.09303 | 718.7 ± 1.2
12260 kPa, x2 = 0.2009 | 722.6 ± 1.2
12260 kPa, x2 = 0.3051 | 726.8 ± 1.1
12260 kPa, x2 = 0.417 | 731.7 ± 1.1
12260 kPa, x2 = 0.512 | 736.3 ± 1.1
12260 kPa, x2 = 0.5996 | 741.4 ± 1.1
12260 kPa, x2 = 0.7052 | 748.2 ± 1
12260 kPa, x2 = 0.7993 | 755.3 ± 1
12260 kPa, x2 = 0.9039 | 764.4 ± 1
14290 kPa, x2 = 0 | 717.2 ± 1.3
14290 kPa, x2 = 0.09303 | 720.3 ± 1.3
14290 kPa, x2 = 0.2009 | 724.2 ± 1.2
14290 kPa, x2 = 0.3051 | 728.3 ± 1.2
14290 kPa, x2 = 0.417 | 733.3 ± 1.2
14290 kPa, x2 = 0.512 | 737.9 ± 1.2
14290 kPa, x2 = 0.5996 | 743 ± 1.1
14290 kPa, x2 = 0.7052 | 749.8 ± 1.1
14290 kPa, x2 = 0.7993 | 756.9 ± 1.1
14290 kPa, x2 = 0.9039 | 766 ± 1
16310 kPa, x2 = 0 | 718.7 ± 1.4
16310 kPa, x2 = 0.09303 | 721.8 ± 1.4
16310 kPa, x2 = 0.2009 | 725.7 ± 1.3
16310 kPa, x2 = 0.3051 | 729.9 ± 1.3
16310 kPa, x2 = 0.417 | 734.8 ± 1.3
16310 kPa, x2 = 0.512 | 739.4 ± 1.2
16310 kPa, x2 = 0.5996 | 744.5 ± 1.2
16310 kPa, x2 = 0.7052 | 751.4 ± 1.2
16310 kPa, x2 = 0.7993 | 758.4 ± 1.1
16310 kPa, x2 = 0.9039 | 767.5 ± 1.1
18340 kPa, x2 = 0 | 720.2 ± 1.5
18340 kPa, x2 = 0.09303 | 723.2 ± 1.4
18340 kPa, x2 = 0.2009 | 727.2 ± 1.4
18340 kPa, x2 = 0.3051 | 731.4 ± 1.4
18340 kPa, x2 = 0.417 | 736.3 ± 1.3
18340 kPa, x2 = 0.512 | 740.9 ± 1.3
18340 kPa, x2 = 0.5996 | 746.1 ± 1.3
